Values of other authors, collected in patent US5556638A, “Flurbiprofen-containing immediate-effect medicament and its use” (Alfatec Pharma GMBH, priority 1991, dated 1996).

Legend:
[1] = prior art
[2] = tested on: pain; conditions: optical antipodes of flurbiprofen
[3] = tested on: inflammation; conditions: optical antipodes of flurbiprofen
[4] = racemate

Q: Which site of absorption ([1]; oral) does the source give for `CC(C(=O)O)c1ccc(-c2ccccc2)c(F)c1` (stereo not drawn) [flurbiprofen, 2-(2-fluoro-4-biphenylyl)propionic acid] here?
A: only absorbed in the upper small intestine

Q: For `C[C@@H](C(=O)O)c1ccc(-c2ccccc2)c(F)c1` [R-flurbiprofen], which analgesic action [2] is on record?
A: pronounced analgesic action

Q: For `C[C@H](C(=O)O)c1ccc(-c2ccccc2)c(F)c1` [S-flurbiprofen], which anti-inflammatory action [3] is on record?
A: marked anti-inflammatory action

Q: For `CC(C(=O)O)c1ccc(-c2ccccc2)c(F)c1` (racemic) [Racemic flurbiprofen], which “time until therapeutic concentrations are achieved” value ([1]; racemic flurbiprofen) is on record?
A: 4 to 5 h

Q: And the tmax ([1]; racemic flurbiprofen, blood level maximum)?
A: 1 to 2 h

Q: What about the undesirable side effects [4] of the same molecule?
A: significant undesirable side effects
